# Test results published in patent US20190365675A1, “COMPOSITIONS FOR THE PREVENTION AND/OR TREATMENT OF ALCOHOL USE DISORDERS” (SERVICIO ANDALUZ DE SALUD, priority 2016, published 2019).
# Legend:
# Type in all cases: in vivo, Wistar rats
# [1] = system: caspase-8; assay: Caspase-8 mRNA in frontal cortex after ethanol intoxication; conditions: OEA pre-treatment
# Procedure: (§1) The animals were treated with intragastric (i.g.) ethanol 3 times a day using an i.g. cannula (16G needle, Fisher Scientific, Waltham, Mass., USA), following a protocol based on a slightly modified standard 4-day alcohol intoxication pattern (Bernier et al., 2002a, b) (FIG. 1A). The ethanol doses were administered every 8 h for a total time of 4 days. The rats treated with ethanol received an initial loading dose of 5 g/kg of ethanol in a 30% solution (w/v) and then a maximum maintenance dose of 3 g/kg, which were determined based on blood ethanol levels (BEL). This repeated standard alcohol intoxication paradigm kept BEL intoxication relatively constant in a range of sedation/ataxia (190 to 430 mg/dl, Table 3), according to the 6-point alcohol intoxication behavior scale (Majchrowicz, 1975). The mean dose of ethanol/rat/day (days 1-4) was 7.06 g/kg, similar to other studies (Obernier et al., 2002a, b). OEA (5 mg/kg, i.p., except initial dose of 10 mg/kg i.p.; synthesized as described in Giuffrida et al., 2000) was dissolved in the vehicle (5% Tween-80 in saline solution) and injected 10 minutes before each of the administrations of ethanol by an intragastric gavage. […] The quantitative changes in mRNA levels were estimated by means of RT-PCR, carried out in the presence of the SYBR green primer using a 20-L reaction in a Rotor-Gene (Corbett Research®, Mortlake, NSW, Australia). […]
# [2] = system: 4-hydroxynonenal (4-HNE); assay: Lipid peroxidation (HNE adduct ELISA) in frontal cortex after ethanol intoxication; conditions: significant only in animals treated with ethanol, OEA pre-treatment
# Procedure: The animals were treated with intragastric (i.g.) ethanol 3 times a day using an i.g. cannula (16G needle, Fisher Scientific, Waltham, Mass., USA), following a protocol based on a slightly modified standard 4-day alcohol intoxication pattern (Bernier et al., 2002a, b) (FIG. 1A). The ethanol doses were administered every 8 h for a total time of 4 days. The rats treated with ethanol received an initial loading dose of 5 g/kg of ethanol in a 30% solution (w/v) and then a maximum maintenance dose of 3 g/kg, which were determined based on blood ethanol levels (BEL). This repeated standard alcohol intoxication paradigm kept BEL intoxication relatively constant in a range of sedation/ataxia (190 to 430 mg/dl, Table 3), according to the 6-point alcohol intoxication behavior scale (Majchrowicz, 1975). The mean dose of ethanol/rat/day (days 1-4) was 7.06 g/kg, similar to other studies (Obernier et al., 2002a, b). OEA (5 mg/kg, i.p., except initial dose of 10 mg/kg i.p.; synthesized as described in Giuffrida et al., 2000) was dissolved in the vehicle (5% Tween-80 in saline solution) and injected 10 minutes before each of the administrations of ethanol by an intragastric gavage. […] The levels of HNE protein adducts in cerebral cortex lysates were measured using an OxiSelect™ HNE adduct competitive ELISA 96-well kit (Cell Biolabs®, San Diego, Calif., USA).
# [3] = system: COX-2; assay: COX-2 mRNA in frontal cortex after ethanol intoxication; conditions: ethanol-treated animals (not in vehicle-treated animals), OEA pre-treatment
# Procedure: as §1
structure (smiles),measurement,setting,value
"CCCCCCCC/C=C\CCCCCCCC(=O)NCCO [OEA, oleoylethanolamide]",Ethanol-induced overexpression of caspase-8 mRNA,[1],reversed
same,Formation of HNE (lipid peroxidation),[2],reduced
same,Levels of COX-2 mRNA with ethanol,[3],reduced
